Structures are written as SMILES. Where a name gives a salt, the structure may show the parent alone.

One data set relates to insoluble tau aggregates. Description: Reduction of insoluble tau aggregates in the brains of treated htau mice. It is filed as in vivo. Here is the method: (§1) Four groups of htau mice (n=25 per group) were treated from 2.5 to 6.5 months of age with 0, 10, 40 and 100 mg/kg of the compound of Example 20 milled into feed. The study was performed independently and blinded. The primary endpoint of the study was reduction of insoluble tau aggregates in the brains of the mice with statistical significance. […] Methods for biochemical analyses of tau used in this study have been previously described (Acker CM et al. Sensitive quantitative assays for tau and phospho-tau in transgenic mouse models. Neurobiol Aging. 2013. 34:338). The results in FIG. 1 show in vivo efficacy of the compound in reducing tau pathology. Levels of insoluble tau in the cortices of htau mice treated with the compound of Example 20 were determined using the pan-tau monoclonal antibody (mAb) DA31. These values were normalized to total tau in the lysates of the cortex of each mouse. Error bars indicate standard error of the mean. The P values of comparisons of the groups treated with 10, 40 or 100 mg/kg of the compound of Example 20 to the control group (white bar, 0 mg/kg) are 0.0503 (horizontal hatch bar, 10 mg/kg), 0.0154 (diagonal hatch bar, 40 mg/kg) and 0.0488 (vertical hatch bar, 100 mg/kg). * indicates P value <0.05.

Data set [1] in a line: Tolerability over the course of the htau mouse study. The note with it: all doses (10, 40, 100 mg/kg in feed), htau mice. The format is in vivo. The procedure: as §1
In data set [2] the target is T1, recombinant human tau 4R2N (Homo sapiens (Human), UniProt P10636). As to the kind of experiment: AlphaLisa Assay (ALA), primary screen for inhibition of tau oligomer formation. The settings on record: tau target 300 nM, 4 hours at room temperature, compound 0.098 uM-50 uM. It is filed as biochemical. The text has this: (§2) Bacterial recombinant human tau 4R2N (the largest isoform of tau in the central nervous system, 441 amino acids in length, Seq. ID 1) constructs with either 6×-His or StrepII N-terminal epitope tags were purified from bacterial lysate using denaturing conditions to prepare tau in its monomeric form.
T1 sequence (P10636 other isoform, or with tags, fused parts or gaps): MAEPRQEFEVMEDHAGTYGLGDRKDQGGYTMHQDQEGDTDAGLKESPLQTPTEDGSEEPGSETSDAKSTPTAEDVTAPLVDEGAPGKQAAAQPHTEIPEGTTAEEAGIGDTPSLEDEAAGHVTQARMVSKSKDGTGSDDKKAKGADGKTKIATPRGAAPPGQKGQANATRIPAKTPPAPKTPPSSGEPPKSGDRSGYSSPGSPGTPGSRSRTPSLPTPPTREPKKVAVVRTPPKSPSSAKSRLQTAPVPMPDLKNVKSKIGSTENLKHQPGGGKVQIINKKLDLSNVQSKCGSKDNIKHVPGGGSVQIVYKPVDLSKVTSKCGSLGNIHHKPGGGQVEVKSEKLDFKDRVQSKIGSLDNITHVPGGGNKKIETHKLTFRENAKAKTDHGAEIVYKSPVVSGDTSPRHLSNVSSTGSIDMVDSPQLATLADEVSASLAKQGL
ALA Assay: AlphaLisa Assay (ALA) was used as a primary screen for identifying compounds that inhibit tau oligomer formation. It is a bead based assay that only gives signal when the beads are in close proximity to each other. When the tau monomer (target) is incubated it forms higher order aggregates (dimer, trimer, tetramer, etc) so that when the donor and acceptor beads bind to the epitope tags of tau they are in close proximity and generate signal.
Tau target (equal mixture of each construct at 300 nM) was prepared in buffer (Tris-HCl pH 7.4) and was incubated in 96-well plates at room temperature for 4 hours with vehicle control (DMSO) and a dose range of a compound of the disclosure (0.098 uM-50 uM). […] The positive control (non-incubated target) & blank (no tau) were prepared and mixed with beads in bead buffer and the plate was read immediately using the EnVision plate reader (Perkin Elmer).
(Alpha assays give light when donor and acceptor beads are brought close together.)

Data set [3] concerns the target T1, recombinant human tau 4R2N. Description: Confirmatory Assay (CONFA), SDS-PAGE quantification of tau monomer and oligomers. It is filed as biochemical. The note with it: tau target 300 nM, 3 hours at room temperature, compound 0.098 uM-50 uM. Here is the method: as §2
CONFA Assay: Confirmatory Assay (CONFA) used as a secondary screen for confirming the mechanism of action of compounds identified as hits using the ALA assay. The assay is performed using a similar procedure as ALA except that it utilizes SDS-PAGE for visualization and quantification of tau monomer and aggregated species (dimer, trimer, tetramer, pentamer, etc.). Only a single construct of tau without epitope tags is necessary, but the assay can use the same target prepared for the ALA assay also.
For the CONFA assay, Tau target (300 nM) was prepared in buffer (Tris-HCl pH 7.4) and was incubated at room temperature for 3 hours with vehicle control (DMSO) and a dose range of a compound of the disclosure (0.098 uM-50 uM). […] AlphaView software (Protein Simple) was used for quantification of tau monomer and oligomers.

On to `Cc1ccc(-n2c(-c3cccnc3)nc3ccccc3c2=O)cc1O` [Ex. 20, 3-(4-Methyl-3-Hydroxyphenyl)-2-(Pyridin-3-yl)Quinazolin-4(3H)-One Hydrochloride], for which the “reduction of insoluble tau, statistical significance” value with insoluble tau aggregates (40 mg/kg and 100 mg/kg doses, male htau mice) is “achieved with statistical significance”. Also, the “in vivo activity: reduction of insoluble tau aggregates in the brains of treated htau mice” value with insoluble tau aggregates (FIG. 1 legend) is listed as “achieved with statistical significance”. Also, the “reduction of insoluble tau” value in the data set with insoluble tau aggregates (htau mice, 10, 40 and 100 mg/kg milled into feed, from 2.5 to 6.5 months of age) is “reduced insoluble tau at all doses”. Besides, in data set [1], the “tolerability over the course of the study” value is recorded as “well tolerated” and the “toxic effects on weight, behavior or morbidity” value is “did not cause toxic effects on weight, behavior or morbidity”.

Broadly, the IC50 is the concentration that gives 50% inhibition. For `CCc1ccc(-n2c(-c3cccnc3)nc3ccccc3c2=O)cc1O` [Ex. 1, 3-(4-Ethyl-3-hydroxyphenyl)-2-(pyridin-3-yl)quinazolin-4(3H)-one], the IC50 in data set [2] is 1.9 µM; in data set [3] it was 4.18 µM.

Source of the values: patent publication US11472776B2, “Quinazolinones that inhibit the formation of tau oligomers and their method of use” (OLIGOMERIX INC., priority 2016, dated 2022).
